Results published in publication PMC6556873, “Rapid Covalent-Probe Discovery by Electrophile-Fragment Screening” (Journal of the American Chemical Society, 2019).
Like-named read-outs stand apart in the source and are kept apart here.

How the values were obtained:
BSA = molecular target: T1, BSA (Bos taurus, UniProt P02769); parameters: Intact protein LC/MS covalent labelling, fragments in pools of five, 200 uM each, 4 °C; conditions: 24 h, 4 °C, pool of five; 200 µM; covalent
T1 construct: gene ALB
T1 sequence (P02769 whole entry, the tested form may be a part): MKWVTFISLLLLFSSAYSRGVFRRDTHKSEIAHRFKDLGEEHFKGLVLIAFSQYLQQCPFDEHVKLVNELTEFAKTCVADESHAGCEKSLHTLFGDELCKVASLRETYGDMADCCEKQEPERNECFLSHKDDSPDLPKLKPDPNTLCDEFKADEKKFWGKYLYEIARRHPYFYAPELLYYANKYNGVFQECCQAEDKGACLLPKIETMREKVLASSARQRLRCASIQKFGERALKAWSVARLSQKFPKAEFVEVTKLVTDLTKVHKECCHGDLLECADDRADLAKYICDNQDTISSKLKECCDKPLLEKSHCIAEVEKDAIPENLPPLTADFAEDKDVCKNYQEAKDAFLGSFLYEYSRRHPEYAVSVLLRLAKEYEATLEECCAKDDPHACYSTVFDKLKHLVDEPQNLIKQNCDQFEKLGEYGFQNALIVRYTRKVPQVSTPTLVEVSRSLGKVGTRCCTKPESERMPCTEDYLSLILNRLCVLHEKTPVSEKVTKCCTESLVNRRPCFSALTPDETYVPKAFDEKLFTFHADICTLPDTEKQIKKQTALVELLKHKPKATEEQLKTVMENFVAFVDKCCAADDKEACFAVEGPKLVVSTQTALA
Experimental: (§1) Incubations were performed at 200 μM for each compound and 2 μM of protein (10 μM for BSA) for 24 h at 4 °C with moderate shaking. Incubation buffers varied among proteins (PBS pH 7.4 for QSOX1 and BSA; 10 mM HEPES pH 7.5, 0.3 M NaCl, 0.5 mM TCEP for PCAF, UPS8, and NUDT7; […]; 10 mM Na2HPO4 pH 7.5 100 mM NaCl 5 mM β-mercaptoethanol for NV3CP; 20 mM Na phosphate pH 7.5 for NNMT; […]. The reaction was stopped by quenching with formic acid, 0.4% final concentration. Each protein was incubated with the electrophilic library in pools of five compounds per well. The pool’s composition maximized the difference in mass between fragments in the same well. Incubations were performed with each fragment at 200 μM, for 24 h at 4 °C, to allow the screening of proteins that are not stable for long time periods at higher temperatures. Following incubation, we used intact protein [compound left out] chromatography/mass spectrometry (LC/MS) to identify the fragments and quantify their labeling (Figure 3A). […] There was good agreement between the percent of labeling of NUDT7 by 100 random individual compounds and that obtained in pools of five (R^2=0.78; Figure S6 and Data set 2 in the Supporting Information).

NUDT7 = molecular target: T2, NUDT7 (Homo sapiens, UniProt P0C024); parameters: Intact protein LC/MS covalent labelling, fragments in pools of five, 200 uM each, 4 °C; conditions: 24 h, 4 °C, pool of five; 200 µM; covalent
T2 construct: residues 14-235, E. coli, pNIC28-Bsa4, N-terminal His6 tag removed by TEV, construct 26672 Da
T2 sequence (P0C024 14-235): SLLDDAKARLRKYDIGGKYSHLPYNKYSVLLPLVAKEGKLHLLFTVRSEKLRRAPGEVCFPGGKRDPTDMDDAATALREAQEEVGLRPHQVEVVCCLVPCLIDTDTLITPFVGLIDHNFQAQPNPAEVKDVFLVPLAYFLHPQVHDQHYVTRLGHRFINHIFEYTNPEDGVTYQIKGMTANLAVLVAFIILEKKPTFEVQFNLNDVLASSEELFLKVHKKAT
Experimental: as §1

PCAF = molecular target: T3, PCAF (Homo sapiens, UniProt Q92831); parameters: Intact protein LC/MS covalent labelling, fragments in pools of five, 200 uM each, 4 °C; conditions: 24 h, 4 °C, pool of five; 200 µM; covalent
T3 construct: gene KAT2B
T3 sequence (Q92831 whole entry, the tested form may be a part): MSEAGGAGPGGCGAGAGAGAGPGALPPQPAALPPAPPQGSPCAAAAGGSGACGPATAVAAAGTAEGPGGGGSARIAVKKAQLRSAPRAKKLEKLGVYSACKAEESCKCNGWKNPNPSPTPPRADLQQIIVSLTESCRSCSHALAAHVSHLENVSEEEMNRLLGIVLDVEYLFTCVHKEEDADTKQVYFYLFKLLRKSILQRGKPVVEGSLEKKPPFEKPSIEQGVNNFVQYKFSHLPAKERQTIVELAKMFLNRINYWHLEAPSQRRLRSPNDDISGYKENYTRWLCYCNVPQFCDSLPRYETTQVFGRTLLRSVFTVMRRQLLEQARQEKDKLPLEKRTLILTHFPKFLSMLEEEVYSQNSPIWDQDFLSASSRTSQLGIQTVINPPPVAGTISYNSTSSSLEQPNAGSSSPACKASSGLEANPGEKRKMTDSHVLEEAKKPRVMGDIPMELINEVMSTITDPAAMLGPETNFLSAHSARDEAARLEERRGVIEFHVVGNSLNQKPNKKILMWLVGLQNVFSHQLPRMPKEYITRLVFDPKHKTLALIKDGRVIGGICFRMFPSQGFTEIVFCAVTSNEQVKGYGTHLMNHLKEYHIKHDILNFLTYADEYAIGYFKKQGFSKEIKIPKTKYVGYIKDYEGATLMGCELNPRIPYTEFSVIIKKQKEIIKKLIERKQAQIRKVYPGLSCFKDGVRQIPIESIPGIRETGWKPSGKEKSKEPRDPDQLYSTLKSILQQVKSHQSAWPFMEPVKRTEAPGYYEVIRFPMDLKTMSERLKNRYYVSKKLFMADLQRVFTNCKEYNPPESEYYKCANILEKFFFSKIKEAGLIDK
Experimental: as §1

in vitro [1] = test: in vitro; parameters: species or system CCD841, HEK293; conditions: human, hb2 cells, read-out: HB-2 Cells Viability (%)
in vitro [2] = test: in vitro; parameters: species or system HB2, HEK293; conditions: human, ccd841 cells
in vitro [3] = test: in vitro; parameters: species or system HB2, CCD841; conditions: human, hek293 cells

SMILES | BSA (BSA) | NUDT7 (NUDT7) | PCAF (PCAF) | viability at 48 h, 10 µM (in vitro [1]) | viability at 48 h, 10 µM (in vitro [2]) | viability at 48 h, 10 µM (in vitro [3])
C=CC(=O)NC1(c2nc(C)cs2)CCOCC1 [PCM-0102601] | 0 | 0 | 0 | 103% | 102% | 109%
O=C(CCl)Nc1c(Cl)cccc1Cl [PCM-0102234] | 0 | 0.64 | 0.45 | 96.3% | 77.5% | 101%
Cc1cc(N2CCCC2)ccc1NC(=O)CCl [PCM-0102301] | 0 | 0.24 | 0 | 47.9% | 78.6% | 40.7%
O=C(CCl)NNc1ccccn1 [PCM-0102319] | 0 | 0 | 0 | 106% | 106% | 94.6%
O=C(CCl)NC1CCC(C(F)(F)F)CC1 (stereo not drawn) [PCM-0102864] | 0 | 0 | 0 | 99.2% | 109% | 82.7%
C=CC(=O)NC1CCN(C(C)=O)Cc2cc(F)ccc21 (stereo not drawn) [PCM-0102635] | 0 | 0 | 0 | 101% | 114% | 91.8%
C=CC(=O)N1CCn2c(cc3c(Cl)cccc32)C1 [PCM-0102835] | 0 | 0 | 0 | 83.4% | 91.6% | 69.7%
O=C(CCl)Nc1ccc(N2CCCCCC2)cc1 [PCM-0102199] | 0 | 0.08 | 0 | 7% | 31.8% | 4%
CN(Cc1c(F)cccc1Cl)C(=O)CCl [PCM-0102184] | 0 |  | 0 | 9.3% | 42.2% | 4.9%
O=C(CCl)Nc1ccc2c(c1)OCCO2 [PCM-0102324] | 0 |  | 0 | 35.2% | 63.3% | 8.2%
C=CC(=O)NC1(C#N)CCOC1 (stereo not drawn) [PCM-0103049] | 0 | 0 | 0 | 99.3% | 95.7% | 115%
O=C(CCl)Nc1ccc2[nH]c(C(F)(F)F)nc2c1 [PCM-0102151] | 0 | 0.07 | 0 | 7.4% | 28% | 1.3%
COc1ccc(NC(=O)NC(=O)CCl)cc1 [PCM-0102268] | 0 | 0 | 0 | 63.7% | 70.4% | 65%
C=CC(=O)N1CCC(NC(=O)c2cc(C)on2)CC1 [PCM-0102557] | 0 | 0 | 0 | 101% | 101% | 83.7%
C=CC(=O)N1CCn2c(cc3cc(Cl)ccc32)C1 [PCM-0102661] | 0.18 | 0 | 0 | 81.5% | 109% | 87.1%
O=C(CCl)Nc1nc(-c2ccco2)cs1 [PCM-0102979] | 0 | 0.25 | 0 | 44% | 89.7% | 66%
C=CC(=O)Nc1ccc(C)c(F)c1 [PCM-0102878] | 0 | 0 | 0 | 102% | 97.9% | 78.8%
Cc1cc(NC(=O)CCl)n(C)n1 [PCM-0102383] | 0 | 0 | 0 | 64.5% | 54.4% | 31.2%
O=C(CCl)N1CCc2cc([N+](=O)[O-])ccc21 [PCM-0102403] | 0 | 0 | 0 | 21.2% | 51.4% | 50.4%
Cc1cccc(N2CCN(C(=O)CCl)CC2)c1C [PCM-0102215] | 0 | 0.29 | 0 | 7.5% | 43.8% | 11.1%
C=CC(=O)NC1c2ccccc2CC12CCOCC2 (stereo not drawn) [PCM-0102445] | 0 | 0 | 0 | 103% | 106% | 111%
Cc1cc(NC(=O)CCl)ccc1Br [PCM-0102770] | 0 | 0.21 | 0 | 2.5% | 15.6% | 1.6%
O=C(CCl)NCc1ccc(Cl)cc1 [PCM-0102668] | 0 | 0 | 0 | 108% | 112% | 83.7%
C=CC(=O)NCc1cnc(C)s1 [PCM-0102587] | 0.24 | 0 | 0 | 107% | 111% | 83.2%
O=C(CCl)N1CC=C(c2c[nH]c3ccccc23)CC1 [PCM-0102631] | 0 |  | 0 | 15.3% | 77.7% | 46.3%
C=CC(=O)NC(C)c1ccc(C(F)(F)F)nc1Cl (stereo not drawn) [PCM-0103053] | 0 |  | 0 | 99.6% | 113% | 85.5%
N#Cc1ccsc1NC(=O)CCl [PCM-0102768] |  |  | 0 | 46.1% | 74.6% | 45.9%
